Measured values as given in PubChem BioAssay AID1963446 (Molecular Pharmacology Branch, DTP, NCI, 2024).
Values joined by “and” are separate entries in the source; they are usually repeats but may differ in a detail not shown here. Equal entries are not always repeated.

System: 993429-296-R-J1-PDC complex spheroid growth, percent test/control
Assay: Anticancer human tumor 993429-296-R-J1-PDC patient-derived uterine sarcoma cell line growth inhibition [Asc]
Conditions: for viability, T/C: stronger effect = lower value; active means viability on the fitted dose curve at most 10% of control; inactive means the rest
Summary of the method: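 Concentration series start at each agent's clinical Cmax, or at 10 microM when none is established, and drop in half-log steps; agents are applied alone or together to complex spheroids built with HUVEC and hMSC.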

[1] = curve of first compound, second compound 0.1 µM
[2] = curve of first compound, second compound 0.316 µM
[3] = curve of first compound, second compound 1 µM
[4] = second compound 0.1 µM, first compound 0.0316 µM
[5] = second compound 0.1 µM, first compound 0.1 µM
[6] = second compound 0.1 µM, first compound 0.316 µM
[7] = second compound 0.1 µM, first compound 1 µM
[8] = second compound 0.316 µM, first compound 0.0316 µM
[9] = second compound 0.316 µM, first compound 0.1 µM
[10] = second compound 0.316 µM, first compound 0.316 µM
[11] = second compound 0.316 µM, first compound 1 µM
[12] = second compound 1 µM, first compound 0.0316 µM
[13] = second compound 1 µM, first compound 0.1 µM
[14] = second compound 1 µM, first compound 0.316 µM
[15] = second compound 1 µM, first compound 1 µM
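Further: spheroids exposed to compounds for seven days.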

C#Cc1c(F)ccc2cc(O)cc(-c3ncc4c(N5CC6CCC(C5)N6)nc(OCC56CCCN5CC(F)C6)nc4c3F)c12 (configuration not stated) + Cc1c(S(C)(=O)=O)c(-c2cc(F)cc(N3CCN(c4ccc(NS(=O)(=O)c5ccc(NC(CCN6CCC(C(=O)OCCCP(=O)(O)O)CC6)CSc6ccccc6)c(S(=O)(=O)C(F)(F)F)c5)cc4)CC3)c2)c(-c2ccc(Cl)cc2)n1C(C)C
2750 nM: IC50 (curve of first compound, second compound 10 µM)
2930 nM: IC50 [1]
inactive: viability, T/C [4] 70.7% | viability, T/C [5] 69.9% | viability, T/C [6] 64.8% | viability, T/C [7] 67.3% | viability, T/C (second compound 0.1 µM, first compound 3.16 µM) 48.8% | viability, T/C [8] 55.4% | viability, T/C [9] 73.8% | viability, T/C [10] 66.5% | viability, T/C [11] 53.1% | viability, T/C (second compound 0.316 µM, first compound 3.16 µM) 36% | viability, T/C [12] 60.1% | viability, T/C [13] 55.9% | viability, T/C [14] 50.7% | viability, T/C [15] 67.3% | viability, T/C (second compound 1 µM, first compound 3.16 µM) 32% | viability, T/C (second compound 3.16 µM, first compound 0.0316 µM) 53.6% | viability, T/C (second compound 3.16 µM, first compound 0.1 µM) 45.6% | viability, T/C (second compound 3.16 µM, first compound 0.316 µM) 45.6% | viability, T/C (second compound 3.16 µM, first compound 1 µM) 36% | viability, T/C (second compound 3.16 µM, first compound 3.16 µM) 33% | viability, T/C (second compound 10 µM, first compound 0.0316 µM) 94.9% | viability, T/C (second compound 10 µM, first compound 0.1 µM) 98.8% | viability, T/C (second compound 10 µM, first compound 0.316 µM) 88.1% | viability, T/C (second compound 10 µM, first compound 1 µM) 74.5% | viability, T/C (second compound 10 µM, first compound 3.16 µM) 46.9%
1410 nM: IC50 [2]
active: viability, T/C (second compound 0.1 µM, first compound 10 µM) 2.44% | viability, T/C (second compound 0.316 µM, first compound 10 µM) 1.38% | viability, T/C (second compound 1 µM, first compound 10 µM) 0.37% | viability, T/C (second compound 3.16 µM, first compound 10 µM) 0.32% | viability, T/C (second compound 10 µM, first compound 10 µM) 2.69%
< 31.6 nM: IC50 (curve of first compound, second compound 3.16 µM)
1450 nM: IC50 [3]

C=CC(=O)N1CCN(c2nc(=O)n(-c3c(C)ccnc3C(C)C)c3nc(-c4c(O)cccc4F)c(F)cc23)C(C)C1 (configuration not stated)
inactive: viability, T/C (compound 0.0316 µM) 90.9% and 96.8% and 96.9% | viability, T/C (compound 0.1 µM) 104% and 92.1% and 93.1% | viability, T/C (compound 0.316 µM) 104% and 92.4% and 105% | viability, T/C (compound 1 µM) 102% and 106% and 110% | viability, T/C (compound 3.16 µM) 64.9% and 109% and 115% | viability, T/C (compound 10 µM) 72.8% and 77% and 94%
> 10000 nM: IC50 (curve of compound)

COc1c(OCCCN2CCOCC2)ccc2c3n(c(=NC(=O)c4cnc(N)nc4)nc12)CCN3 + CNC(C)C(=O)NC1CN(S(=O)(=O)c2cccc(S(=O)(=O)N3CCC4CCC(C(=O)NC(c5ccccc5)c5ccccc5)N4C(=O)C(NC(=O)C(C)NC)C3)c2)CCC2CCC(C(=O)NC(c3ccccc3)c3ccccc3)N2C1=O
5.34 nM: IC50 [2]
9.29 nM: IC50 (curve of first compound, second compound 0.0316 µM)
inactive: viability, T/C (second compound 0.01 µM, first compound 0.00316 µM) 68.8% | viability, T/C (second compound 0.01 µM, first compound 0.01 µM) 60.1% | viability, T/C (second compound 0.01 µM, first compound 0.0316 µM) 36.4% | viability, T/C (second compound 0.01 µM, first compound 0.1 µM) 12.3% | viability, T/C (second compound 0.0316 µM, first compound 0.00316 µM) 54.7% | viability, T/C (second compound 0.0316 µM, first compound 0.01 µM) 50% | viability, T/C (second compound 0.0316 µM, first compound 0.0316 µM) 32.9% | viability, T/C (second compound 0.0316 µM, first compound 0.1 µM) 12.4% | viability, T/C (second compound 0.1 µM, first compound 0.00316 µM) 57.1% | viability, T/C (second compound 0.1 µM, first compound 0.01 µM) 56.9% | viability, T/C [4] 29.9% | viability, T/C (second compound 0.316 µM, first compound 0.00316 µM) 58% | viability, T/C (second compound 0.316 µM, first compound 0.01 µM) 39.8% | viability, T/C [8] 24.5% | viability, T/C [9] 8.8% | viability, T/C (second compound 1 µM, first compound 0.00316 µM) 52.4% | viability, T/C (second compound 1 µM, first compound 0.01 µM) 41.6% | viability, T/C [12] 24.8% | viability, T/C [13] 11.3%
4.09 nM: IC50 [3]
12.1 nM: IC50 [1]
active: viability, T/C (second compound 0.01 µM, first compound 0.316 µM) 3.69% | viability, T/C (second compound 0.01 µM, first compound 1 µM) 1.21% | viability, T/C (second compound 0.0316 µM, first compound 0.316 µM) 4.55% | viability, T/C (second compound 0.0316 µM, first compound 1 µM) 1.09% | viability, T/C [5] 12.2% | viability, T/C [6] 3.36% | viability, T/C [7] 1.18% | viability, T/C [10] 3.2% | viability, T/C [11] 1.42% | viability, T/C [14] 4.7% | viability, T/C [15] 0.9%
16.3 nM: IC50 (curve of first compound, second compound 0.01 µM)
